Assay results taken from patent EP4635945A1, “CRYSTAL FORM OF PROXIMOD, PREPARATION METHOD THEREFOR, AND USE THEREOF” (Jiankuan (Suzhou) Biotechnology Co., Ltd, priority 2022, dated 2024).
“Also recorded” adds a separate entry of the source.

What was measured:
Type in all cases: physicochemical
[1] = Fluidity: angle of repose, bulk and tap density, Hausner ratio; settings: hydrochloride
Description: This experiment was performed by using a tap density tester according to the fixed-volume method. The specific operations are as follows: The weighed powder, with a volume of 50 mL, was loaded into a graduated cylinder, and the graduated cylinder was secured onto a support. The graduated cylinder was set to be vibrated at 55 ± 5 vibrations per minute for 6-8 minutes. The volume change of the powder was measured in a measuring cup. The ratio of the weight of the powder to the volume (50 mL) before tapping is the bulk density of the powder, and the ratio of the weight of the powder to the volume after tapping is the tapped density of the powder.
The Hausner ratio and the compression degree were converted in the following methods. Hausner ratio = tap density/bulk density [formula] Compression degree = (tapdensity−bulkdensity)/tap density [formula]
This experiment was performed by a pouring method, and the angles of repose of the drug substances of the two crystal forms were measured in combination with a residual cone method to analyze their fluidities. The specific operations are as follows: The powder was poured onto the center of a disk with a specific diameter, and when the material on the slope of the powder pile began to flow freely out along the periphery of the disk, the pouring of the powder was stopped. The height (h) of the cone was measured, and the angle of repose was calculated in combination with the diameter (2r) of the disk, that is, tanQ = h/r.

[2] = Hygroscopicity by dynamic vapor sorption (DVS)
Text: (§1) In the examples of the present application, the instrument used for the X-ray powder diffraction test is the D2 Phaser produced by Bruker. The instrument used for the differential scanning calorimetry test is the differential scanning calorimeter DSC 250 produced by TA Instruments. The instrument used for the thermogravimetric analysis is the thermogravimetric analyzer TGA 55 produced by TA Instruments. The instrument used for the FT-IR test is the Fourier infrared spectrometer ID1-summit produced by Thermo. The instrument used for the dynamic vapor sorption test is the DVS Intrinsic produced by Surface Measurement Systems (SMS). The instrument used for the microscopy is the microscope NJF-120A produced by Suzhou Nanguang Electronic Technology Co., Ltd.

[3] = Mechanical stability: grinding in agate mortar, XRPD; settings: 50 mg ground with an agate mortar for 5 minutes; hydrochloride
Text: The samples before and after ground were detected by XRPD.

[4] = Microscopic morphology and particle size; settings: microscopy; hydrochloride
Text: as §1

[5] = Solid-state stability of crystal forms on storage (XRPD, purity); settings: for Maximum single impurity after storage / Crystal form after storage / Main purity after storage: 30 days, exposed
Description: The crystal forms of the samples before and after storage were tested by XRPD.

[6] = Compressibility: tableting, hardness and tensile strength; settings: die with a diameter of 6 mm
Description: In this experiment, a die with a diameter of 6 mm was used. The drug substance and the drug substance + excipient were tableted under the same pressure, respectively. After the elasticity of the prepared tablets was restored, the radial crushing force F, diameter D, and thickness L of the tablets were measured. The tensile strength of the tablets was calculated according to the following formula: Ts = 2F/IIDL.

[7] = Dynamic solubility in biorelevant media and buffers at 37 °C (HPLC, XRPD of solids); settings: for solubility at 1 h / solubility at 4 h / solubility at 24 h / solubility at 2 h: thermodynamic from solid
Description: (§2) After 1 hour/2 hours/4 hours/24 hours, the saturated solutions were obtained by filtration. The actual concentrations of the samples in the saturated solutions were determined by high-performance liquid chromatography (HPLC) (the filtered solutions were diluted as needed), and the crystal forms of the solids before and after the experiment were characterized by XRPD to check whether phase changes occurred.

[8] = Equilibrium solubility in organic solvents at room temperature (HPLC, XRPD of solids); settings: organic solvent or mixture, thermodynamic from solid, 24 hours of equilibrium
Description: as §2, with “24 hours of equilibrium,” for “1 hour/2 hours/4 hours/24 hours,”, “contents” for “actual concentrations”

[9] = FaSSIF (pH of 8.0), 1 hour, hydrochloride
[10] = FaSSIF (pH of 8.0), 2 hours, hydrochloride
[11] = pH = 4.0 acetic acid-sodium acetate buffer, 2 hours, hydrochloride
[12] = pH = 6.8 phosphate buffer, 4 hours
[13] = pH = 6.8 phosphate buffer, 24 hours

- Compression degree ([1]; (tap density − bulk density)/tap density): 33.0% 33.0%
- Bulk density ([1]; fixed-volume method, 50 mL): 0.34 g/mL
- Tap density ([1]; fixed-volume method, after tapping): 0.50 g/mL
- Angle of repose ([1]; pouring method with residual cone method): 56.25 °
- Hausner ratio ([1]; tap density/bulk density): 1.5
- Weight gain by water absorption (DVS) ([2]; 24.4 °C/90% RH): 0.06%
- Weight gain by water absorption (DVS) ([2]; vapor sorption at 25 °C/90% RH): 0.26%
- Crystal form after ground (XRPD) [3]: remains unchanged
- Length/short diameter ratio [4]: 1-3
- Microscopic morphology [4]: flaky
- Maximum single impurity after storage ([5]; At 40 °C/75% RH): Maximum single impurity: 0.04 A%
- Crystal form after storage ([5]; At 40 °C/75% RH, hydrochloride): Crystal form A
- Main purity after storage ([5]; At 40 °C/75% RH, hydrochloride): Main purity: 99.82 A%
- Maximum single impurity after storage ([5]; At 60 °C): Maximum single impurity: 0.04 A%
- Crystal form after storage ([5]; At 60 °C, hydrochloride): Crystal form A
- Main purity after storage ([5]; At 60 °C, hydrochloride): Main purity: 99.80 A%
- Maximum single impurity after storage ([5]; At 92.5%RH): Maximum single impurity: 0.04 A%
- Crystal form after storage ([5]; At 92.5%RH, hydrochloride): Crystal form A
- Main purity after storage ([5]; At 92.5%RH, hydrochloride): Main purity: 99.81 A%
- Maximum single impurity before storage ([5]; Before storage): Maximum single impurity: 0.04 A%
- Main purity before storage ([5]; Before storage, hydrochloride): Main purity: 99.79 A%
- Crystal form after storage ([5]; In light, hydrochloride): Crystal form A
- Main purity after storage ([5]; In light, hydrochloride): Main purity: 98.83 A%
- Maximum single impurity after storage ([5]; In light, hydrochloride): Maximum single impurity: 0.43 A%
- Time the crystal form remains stable ([5]; at 60 °C, 92.5% RH, and 45 °C/75% RH): at least 30 days
- Tensile strength Ts ([6]; Ts = 2F/IIDL, hydrochloride): 0.17
- Hardness ([6]; same pressure, hydrochloride): 5 N
- Experimental phenomena ([6]; tableting): Severe punch sticking
- Crystal form of the solid [7, 9]: A + Free alkali
- Solubility [7, 9]: 22 µg/mL
- Crystal form of the solid [7, 10]: A + Free alkali
- Solubility [7, 10]: 24 µg/mL
- Crystal form of the solid ([7]; FaSSIF (pH of 8.0), 4 hours): Free alkali
- Solubility ([7]; FaSSIF (pH of 8.0), 4 hours, hydrochloride): 18 µg/mL
- Crystal form of the solid ([7]; FaSSIF (pH of 8.0), 24 hours): Free alkali
- Solubility ([7]; FaSSIF (pH of 8.0), 24 hours, hydrochloride): 16 µg/mL
- Solubility ([7]; FeSSIF (pH of 5.0), 4 hours, hydrochloride): 340 µg/mL
- Crystal form of the solid ([7]; FeSSIF (pH of 5.0), 24 hours): no crystal form change
- Crystal form of the solid ([7]; SGF (pH of 1.0), 1 hour): A + F
- Crystal form of the solid ([7]; SGF (pH of 1.0), 2 hours): A + F
- Crystal form of the solid ([7]; SGF (pH of 1.0), 4 hours): A + F
- Crystal form of the solid ([7]; SGF (pH of 1.0), 24 hours): A + F
- Crystal form of the solid ([7]; Water, 1 hour, hydrochloride): A + F
- Crystal form of the solid ([7]; Water, 2 hours, hydrochloride): A + F
- Crystal form of the solid ([7]; Water, 4 hours, hydrochloride): A + F
- Solubility ([7]; Water, 4 hours, hydrochloride): 990 µg/mL
- Crystal form of the solid ([7]; Water, 24 hours, hydrochloride): A + F
- solubility at 1 h ([7]; acetic acid-sodium acetate buffer, pH 4, aqueous buffer, pH = 4.0 acetic acid-sodium acetate buffer, 1 hour): 1690 µg/mL
- solubility at 4 h ([7]; acetic acid-sodium acetate buffer, pH 4, aqueous buffer, pH = 4.0 acetic acid-sodium acetate buffer, 4 hours): 1360 µg/mL
- solubility at 24 h ([7]; acetic acid-sodium acetate buffer, pH 4, aqueous buffer, pH = 4.0 acetic acid-sodium acetate buffer, 24 hours): 4110 µg/mL
- solubility at 1 h ([7]; fed state simulated intestinal fluid (FeSSIF), pH 5, fessif, FeSSIF (pH of 5.0), 1 hour): 1930 µg/mL
- solubility at 2 h ([7]; fed state simulated intestinal fluid (FeSSIF), pH 5, fessif, FeSSIF (pH of 5.0), 2 hours): 2110 µg/mL
- solubility at 24 h ([7]; fed state simulated intestinal fluid (FeSSIF), pH 5, fessif, FeSSIF (pH of 5.0), 24 hours): 3720 µg/mL
- solubility at 1 h ([7]; hydrochloric acid aqueous solution, pH 1, simulated gastric fluid, pH = 1.0 hydrochloric acid aqueous solution, 1 hour): 280 µg/mL
- solubility at 2 h ([7]; hydrochloric acid aqueous solution, pH 1, simulated gastric fluid, pH = 1.0 hydrochloric acid aqueous solution, 2 hours): 280 µg/mL
- solubility at 4 h ([7]; hydrochloric acid aqueous solution, pH 1, simulated gastric fluid, pH = 1.0 hydrochloric acid aqueous solution, 4 hours): 330 µg/mL
- solubility at 24 h ([7]; hydrochloric acid aqueous solution, pH 1, simulated gastric fluid, pH = 1.0 hydrochloric acid aqueous solution, 24 hours): 400 µg/mL
- Crystal form of the solid ([7]; pH = 1.0 hydrochloric acid aqueous solution, 1 hour): A + F
- Crystal form of the solid ([7]; pH = 1.0 hydrochloric acid aqueous solution, 2 hours): A + F
- Crystal form of the solid ([7]; pH = 1.0 hydrochloric acid aqueous solution, 4 hours): A + F
- Crystal form of the solid ([7]; pH = 1.0 hydrochloric acid aqueous solution, 24 hours): A + F
- Crystal form of the solid ([7]; pH = 4.0 acetic acid-sodium acetate buffer, 1 hour, hydrochloride): A + F
- Crystal form of the solid [7, 11]: A + F
- Solubility [7, 11]: 1130 µg/mL
- Crystal form of the solid ([7]; pH = 4.0 acetic acid-sodium acetate buffer, 4 hours, hydrochloride): A + F
- Crystal form of the solid ([7]; pH = 4.0 acetic acid-sodium acetate buffer, 24 hours, hydrochloride): A + F
- Crystal form of the solid ([7]; pH = 6.8 phosphate buffer, 1 hour): Free alkali
- Crystal form of the solid ([7]; pH = 6.8 phosphate buffer, 2 hours): Free alkali
- Solubility ([7]; pH = 6.8 phosphate buffer, 2 hours, hydrochloride): Not detected
- Crystal form of the solid [7, 12]: Free alkali
- Solubility [7, 12]: Not detected
- Crystal form of the solid [7, 13]: Free alkali
- Solubility [7, 13]: Not detected
- solubility at 1 h ([7]; phosphate buffer, pH 6.8, aqueous buffer, pH = 6.8 phosphate buffer, 1 hour): 0.16 µg/mL
- solubility at 1 h ([7]; simulated gastric fluid (SGF), pH 1, simulated gastric fluid, SGF (pH of 1.0), 1 hour): 260 µg/mL
- solubility at 2 h ([7]; simulated gastric fluid (SGF), pH 1, simulated gastric fluid, SGF (pH of 1.0), 2 hours): 250 µg/mL
- solubility at 4 h ([7]; simulated gastric fluid (SGF), pH 1, simulated gastric fluid, SGF (pH of 1.0), 4 hours): 280 µg/mL
- solubility at 24 h ([7]; simulated gastric fluid (SGF), pH 1, simulated gastric fluid, SGF (pH of 1.0), 24 hours): 460 µg/mL
- solubility at 1 h ([7]; water, 1 hour): 2020 µg/mL
- solubility at 2 h ([7]; water, 2 hours): 2570 µg/mL
- solubility at 24 h ([7]; water, 24 hours): 3290 µg/mL
- solubility at 24 h ([8]; acetone): 43 µg/mL
- solubility at 24 h ([8]; ethanol): 9990 µg/mL
- solubility at 24 h ([8]; ethyl acetate): 11 µg/mL
SMILES: CCCc1nc(-c2ccc(-c3ccc(CCC(N)(CO)CO)cc3)cc2)co1.Cl [Crystal form A, 2-amino-2-{2-(4'-(2-propyloxazol-4-yl)-[1,1'-biphenyl]-4-yl)ethyl}-1,3-propanediol hydrochloride]
- Hygroscopicity description ([2]; DVS, 90% RH, hydrochloride): no or almost no hygroscopicity; also recorded: slightly hygroscopic
